What all share (format): cell-based, human
For data set [1], the system named is ADP-induced platelet aggregation. Kind of data set: ADP-induced platelet aggregation in platelet-rich plasma (turbidimetric method of Born, aggregometer). Particulars: for IC50: ADP-induced aggregation, PRP, mean of three (*) or two determinations. How it is done: (§1) Unless otherwise provided below, the experimental procedures were performed according to the procedures provided in U.S. Pat. No. 5,049.550 (Zamecnik '550), the entire contents of which are incorporated herein by reference. Some alternative procedures (e.g., release reaction, PF3 assays) and a number of additional studies also are provided (e.g., cytoplasmic calcium mobilization, fibrinogen binding site, agonists other than ADP, platelet cAMP and distribution of CHCl-AP4 A into blood components). Blood was collected in a 0.1 volume of 3.8% sodium citrate from healthy human volunteers who had abstained from antiplatelet agents for at least 10 days. Platelet rich plasma (PRP) was separated by a gradual centrifugation and adjusted to 3.3×10^8 platelets per ml plasma. PRP has been utilized in the Examples unless otherwise stated.
An initial screening was performed for inhibitory effects of several agents (including, e.g., thio-CHCl-AP4 A and CHCl-AP4 A as reference agent)) on platelet aggregation induced by ADP. Platelet aggregation was measured with platelet-rich plasma (PKP) by the turbidimetric method of Born (J. Physiol. 162:67, 1962) in an aggregometer (Chrono-log, Model 530 VS). Platelet aggregation induced by 5 μM ADP in the absence or presence of 5 μM agents was examined. […] The IC50 value of the CHCl-AP4 A (reference agent) was consistent with the value reported previously (P. Zamecnik et al., Proc. Nat'l. Acad. Sci. USA 89:2370-2373 (1992)).

In data set [2] the test system is Cytoplasmic Calcium Ion (Ca^++) Mobilization in platelets. Description: Cytoplasmic calcium ion mobilization in platelets (Indo-1, flow cytometer). Conditions: 6.7 μM ADP. How it is done:
as §1
An increment of cytoplasmic Ca^++ in the platelets represents an activated state. Indo-1 acetomethyl ester (Indo-1) commonly has been utilized as the reagent to detect intracellular free Ca^++. Indo-1 reacts with Ca^++ and produces fluorescence which can be monitored in a dual wavelength (408/485) flow cytometer (Coulter EPIC Systems). Platelets were incubated with Indo-1 at 37° C. for 45 min. Excess Indo-1 in the medium was removed by gel-filtration method. Indo-1-loaded platelets were then activated by 6.7 μM ADP in the absence or presence of thio-CHCl-AP4 A (3.3 μM) or CHCl-AP4 A (6.7 μM). Fluorescence intensity of the platelets was monitored and plotted against platelet number. The histograms generated from the plots were analyzed. Unstimulated platelets registered fluorescence intensity (FI) between 42 and 250 with a peak at 133 (base line control).
(A flow cytometer gives signals particle by particle.)

Another data set has as its system platelet cAMP level. Kind of data set: Level of intracellular platelet cAMP (etheno-cAMP, HPLC). Conditions: for platelet cAMP level: 37° C., 5 min, control 31.6; for effect on the platelet cAMP level: in words. How it is done:
as §1
The inhibitory effect of cAMP on platelet aggregation has been known as a counteraction of calcium ion mobilization. Accordingly, the inhibitory effects of the agents with respect to a cAMP mediated mechanism was tested. PRP was incubated with saline (control), agents (at 20 μM and 100 μM), or forskolin (10 μM) at 37° C. for 5 min. After incubation, extracts were made using Ba(OH)2 and ZnSO4. Cyclic AMP in the extracts was converted into the etheno-cAMP derivative, and the levels were estimated by HPLC using a fluorescence detector (W. Wojcik et al., J. Cyclic Nucleotide Res. 7:27-35 (1981)). The level of cAMP in an unknown extract was determined by extrapolation from a standard graph. A linear relationship between the cAMP level in the extracted samples and fluorescence detection was observed. […] However, this increase may not be a specific effect. Although adenosine contamination in the tested AP4 A agents was not detected, it is possible that either cellular adenosine nucleotide metabolic products or contaminated adenosine in the tested agents may be responsible for the elevated cAMP level.
A general note: Changes in cAMP serve as a functional read-out for many G protein-coupled receptors.

For a further data set, the system named is platelet aggregation. Description: Platelet aggregation induced by ADP and agonists other than ADP. Conditions: for IC50: Homo sapiens, Platelet; for effect on collagen-induced aggregation: agonist collagen, in words; for effect on ristocetin-induced platelet aggregation: agonist ristocetin; for effect on thrombin-induced platelet aggregation: agonist thrombin. The procedure:
as §1
The release reaction appears to be a unique response following platelet activation. ADP, among several platelet constituents, appears to play an important role in the enhancement of activation. We have examined the role of ADP that is released in platelet aggregation induced by other agonists including arachidonic acid, collagen, epinephrine, thrombin and ristocetin. Platelet aggregability induced by a given concentration of agonists was approximately 60-80% in absence of agents. […] This finding supports the above-described observations of the inhibitory effects of the agents on the release reaction.

Data set [3] deals with ADP-induced platelet aggregability. Description: Ability to aggregate of platelets exposed previously to the agents, resuspended in inhibitor-free plasma. Conditions: for activity at 25 µM: preincubated 25 μM agent. How it is done:
as §1
We believe that the inhibition mechanism of AP4 A analogues involves competing with ADP for binding to the platelet purinoceptor. To test the stability and inhibitory effects of the bound agent, platelet-rich plasma anticoagulated with ACD solution was preincubated with 25 μM thio-CHCl-AP4 A or 50 μM CHCl-AP4 A at 22° C. for 30 minutes. Platelets isolated by gel-column filtration (2×10^8 cells/ml) or centrifugation (3×10^8cells/ml) were resuspended in the inhibitor-free plasma and ADP-induced aggregability was measured. The values represent a mean of three experiments for the series of gel-filtration separation and a mean of two experiments for the centrifugation separation.

In data set [4] the test system is ADP-induced platelet aggregation. Kind of data set: Time-dependent effects on ADP-induced aggregation (stability of the agents by functional assay in PRP). Particulars: for ADP-induced aggregation: 10 μM ADP; for stability of inhibitory effect / agent in PRP: 37° C., up to 3 hours, in words. How it is done:
as §1
To observe the stability of the agents by functional assay, PRP was incubated with 2.51 μM thio-CHCl-AP4 A or 5 μM CHCl-AP4 A at 37° C. for 3 hours. The concentrations of inhibiting agents used in this experiment were relatively low, especially for the thio compound. Samples taken at the times indicated were tested for ADP-induced (10 μM) aggregation.

[5] abbreviates: agonist Arachidonic Acid (1 mM).

“Also recorded” adds a separate entry of the source. Read-outs that look alike come from different tables or passages of the source. Some results are limits rather than exact numbers.

A word on the IC50: it is the midpoint of a concentration-inhibition curve. In the case of `Nc1ncnc2c1ncn2[C@@H]1O[C@H](COP(=O)(O)OP(=O)(O)C(Cl)P(=O)(O)OP(=O)(O)OC[C@H]2O[C@@H](n3cnc4c(N)ncnc43)[C@H](O)[C@@H]2O)[C@@H](O)[C@H]1O` (stereo partly drawn) [CHCl-AP4 A], the IC50 in data set [1] is 3.28 µM; with platelet aggregation (agonist ADP (5 μM)) it was 3.28 µM; in the data set on platelet aggregation (setting [5]), 19 µM; in the data set with platelet aggregation (agonist Collagen (μg)) it was over 100 µM; in the data set on platelet aggregation (agonist Epinephrine (10 μM)), 24 µM. For the same molecule, in data set [2] (6.7 μM CHCl-AP4 A), the “effect on ADP-induced Ca^++ mobilization” value is reported as “blocked completely”. The “platelet cAMP level” value in the data set with platelet cAMP level (20 μM agent) was 30.6 nM; in the data set on platelet cAMP level (100 μM agent) it was 56.7 nM. Moreover, the “effect on the platelet cAMP level” value in the data set on platelet cAMP level (20 μM) is on record as “no effect”; with platelet cAMP level (100 μM), “moderate increase”. Moreover, the “effect on collagen-induced aggregation” value in the data set with platelet aggregation is given as “unaffected”. Also, the “effect on ristocetin-induced platelet aggregation” value in the data set with platelet aggregation is “Neither thio-CHCl-AP4 A nor CHCl-AP4 A affected”. Further, in the data set on platelet aggregation, the “effect on thrombin-induced platelet aggregation” value was “Neither thio-CHCl-AP4 A nor CHCl-AP4 A affected”. In addition, in data set [3] (Homo sapiens, Platelet, 0.5 h, centrifugation, 20 μM ADP, preincubated 50 μM agent, 22° C., 30 min, mean of two, read-out: Aggregability (% of control)), the activity at 50 µM is 92%. The “inhibition in the ability to aggregate following exposure to ADP” value in data set [3] (preincubated 50 μM CHCl-AP4 A) is given as 8%. The ADP-induced aggregation in data set [4] (5 μM agent, 0 min in PRP at 37° C., without agent 82%) was found to be 13%; in data set [4] (5 μM agent, 60 min in PRP at 37° C., without agent 69%), 31%; in data set [4] (5 μM agent, 120 min in PRP at 37° C., without agent 59%), 47%; in data set [4] (5 μM agent, 180 min in PRP at 37° C., without agent 43%), 42%. Also, the “stability of inhibitory effect / agent in PRP” value in data set [4] is “becomes unstable when it is kept in PRP more than 60 minutes at 37 °C”.

On to `Nc1ncnc2c1ncn2[C@@H]1O[C@H](COP(O)(=S)OP(=O)(O)C(Cl)P(=O)(O)OP(O)(=S)OC[C@H]2O[C@@H](n3cnc4c(N)ncnc43)[C@H](O)[C@@H]2O)[C@@H](O)[C@H]1O` (stereo partly drawn) [Thio-CHCl-AP4 A, P^1, P^4 -dithio -P^2 -P^3 monochloromethylene 5', 5'" diadenosine P^1, P^4 -tetraphosphate], for which the 50% inhibitory concentration (IC50) in data set [1] stood at 0.81 µM; in the data set on platelet aggregation (agonist ADP (5 μM)), 0.81 µM; in the data set with platelet aggregation (setting [5]) it was 9.12 µM; in the data set with platelet aggregation (agonist Collagen (μg)), 9 µM; in the data set on platelet aggregation (agonist Epinephrine (10 μM)) it was 5.25 µM. Moreover, the “in vitro platelet aggregation inhibitory activity relative to AP4 A and analogs” value in data set [1] (compared to AP4 A, known analogs, non-thio counterpart, in words, listed as Aps pCHClpps A) was “nearly an order of magnitude greater than the inhibitory activity of naturally-occurring AP4 A; also recorded: significantly greater than the activities of known AP4 A analogs; also recorded: significantly greater platelet aggregation inhibitory activity than that of its corresponding non-thio counterpart”. For the same molecule, the “effect on ADP-induced Ca^++ mobilization” value in data set [2] (3.3 μM thio-CHCl-AP4 A) is “blocked completely”. The “platelet cAMP level” value in the data set on platelet cAMP level (20 μM agent) stood at 28.6 nM; with platelet cAMP level (100 μM agent), 54.4 nM. In addition, the “effect on the platelet cAMP level” value with platelet cAMP level (20 μM) is on record as “no effect”; in the data set with platelet cAMP level (100 μM), “moderate increase”. Also, the “effect on collagen-induced aggregation” value with platelet aggregation is recorded as “detectable inhibitory effect”. Further, in the data set with platelet aggregation, the “effect on ristocetin-induced platelet aggregation” value was “Neither thio-CHCl-AP4 A nor CHCl-AP4 A affected”. Besides, the “effect on thrombin-induced platelet aggregation” value with platelet aggregation is “Neither thio-CHCl-AP4 A nor CHCl-AP4 A affected”. Besides, the activity at 25 µM was found to be 67% in data set [3] (Homo sapiens, Platelet, 0.5 h, centrifugation, 20 μM ADP, 22° C., 30 min, mean of two, read-out: Aggregability (% of control)) and 78% in data set [3] (Homo sapiens, Platelet, 0.5 h, gel-filtration, 10 μM ADP, 22° C., 30 min, mean of three, read-out: Aggregability (% of control)). In addition, the “inhibition in the ability to aggregate following exposure to ADP” value in data set [3] (preincubated 25 μM thio-CHCl-AP4 A) is on record as 22-33%. Also, the ADP-induced aggregation came out at 21% in data set [4] (2.5 μM agent, 0 min in PRP at 37° C., without agent 82%); 7% in data set [4] (2.5 μM agent, 60 min in PRP at 37° C., without agent 69%); 5% in data set [4] (2.5 μM agent, 120 min in PRP at 37° C., without agent 59%); 6% in data set [4] (2.5 μM agent, 180 min in PRP at 37° C., without agent 43%). Further, the “stability of inhibitory effect / agent in PRP” value in data set [4] is on record as “very stable for at least a 3 hour period”.
